In PubChem BioAssay (NCI):
Several values for one entry are separate records, joined by “and”; a condition that tells them apart may be missing. Identical values can stand only once.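 48-hour exposure; five concentrations; linearly interpolated endpoints. GI50: concentration for 50% inhibition of growth. TGI: total growth inhibition.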

Key:
Test in all cases: NCI-60 cell line screen, 48 h
[1] = tested on: SK-OV-3 ovarian
[2] = tested on: UACC-257 melanoma
[3] = tested on: CAKI-1 renal
[4] = tested on: T-47D breast
[5] = tested on: MCF7 breast
[6] = tested on: HCC-2998 colon
[7] = tested on: SNB-19 CNS
[8] = tested on: MALME-3M melanoma
[9] = tested on: HS 578T breast
[10] = tested on: SNB-75 CNS
[11] = tested on: DU-145 prostate
[12] = tested on: OVCAR-8 ovarian
[13] = tested on: HOP-62 NSCLC
[14] = tested on: LOX IMVI melanoma
[15] = tested on: M14 melanoma
[16] = tested on: HCT-116 colon
[17] = tested on: HT29 colon
[18] = tested on: SW-620 colon
[19] = tested on: SK-MEL-5 melanoma
[20] = tested on: RPMI-8226 leukemia
[21] = tested on: A498 renal
[22] = tested on: KM12 colon
[23] = tested on: SF-539 CNS
[24] = tested on: NCI/ADR-RES ovarian
[25] = tested on: NCI-H460 lung
[26] = tested on: OVCAR-5 ovarian
[27] = tested on: NCI-H23 lung
[28] = tested on: A549 NSCLC
[29] = tested on: NCI-H226 lung
[30] = tested on: MDA-MB-435
[31] = tested on: CCRF-CEM leukemia
[32] = tested on: PC-3 prostate
[33] = tested on: HCT-15 colon
[34] = tested on: SF-268 CNS
[35] = tested on: TK-10 renal
[36] = tested on: HOP-92 NSCLC
[37] = tested on: SK-MEL-28 melanoma
[38] = tested on: MDA-N
[39] = tested on: RXF 393 renal
[40] = tested on: U251 CNS
[41] = tested on: OVCAR-3 ovarian
[42] = tested on: OVCAR-4 ovarian
[43] = tested on: MDA-MB-231 breast
[44] = tested on: MOLT-4 leukemia
[45] = tested on: SF-295 CNS
[46] = tested on: SK-MEL-2 melanoma
[47] = tested on: COLO 205 colon
[48] = tested on: K-562 leukemia
[49] = tested on: EKVX NSCLC
[50] = tested on: IGROV1 ovarian
[51] = tested on: NCI-H522 lung
[52] = tested on: ACHN renal
[53] = tested on: HL-60(TB) leukemia
[54] = tested on: UO-31 renal
[55] = tested on: 786-0 renal
[56] = tested on: BT-549 breast
[57] = tested on: UACC-62 melanoma
[58] = tested on: SN12C renal
[59] = tested on: SR leukemia

Compound: Cn1cnc(C(=N)[Se])c1N
- TGI [1]: 2.3 µM
- TGI [2]: > 100 µM
- TGI [3]: 60.9 µM
- TGI [4]: > 100 µM
- TGI [5]: > 29.3 µM
- TGI [6]: > 100 µM
- TGI [7]: > 28 µM
- TGI [8]: 8.89 µM
- TGI [9]: > 26.4 µM
- TGI [10]: 4.38 µM
- TGI [11]: > 100 µM
- TGI [12]: 3.31 µM
- TGI [13]: > 23.4 µM
- TGI [14]: > 100 µM
- TGI [15]: > 100 µM
- TGI [16]: > 100 µM
- TGI [17]: > 100 µM
- TGI [18]: > 100 µM
- TGI [19]: > 100 µM
- TGI [20]: 6.95 µM
- TGI [21]: > 28.6 µM
- TGI [22]: > 28.8 µM
- TGI [23]: 4.18 µM
- TGI [24]: 3.15 µM
- TGI [25]: 1.55 µM
- TGI [26]: > 100 µM
- TGI [27]: > 27.1 µM
- TGI [28]: > 100 µM
- TGI [29]: 12.5 µM
- TGI [30]: > 100 µM
- TGI [31]: 6.26 µM
- TGI [32]: 14.9 µM
- TGI [33]: > 100 µM
- TGI [34]: 4.94 µM
- TGI [35]: > 24.8 µM
- TGI [36]: > 100 µM
- TGI [37]: > 100 µM
- TGI [38]: > 100 µM

Compound: CCN(CC)CCSc1c(C(C)=O)c(=O)n(-c2ccccc2)c(=S)n1-c1ccccc1
- TGI [1]: > 100 µM
- TGI [39]: 3.94 µM
- TGI [40]: 33.1 µM
- TGI [41]: 8.79 µM
- TGI [42]: 29 µM
- TGI [43]: 26.9 µM
- TGI [2]: 23.4 µM
- TGI [44]: 19.3 µM
- TGI [3]: 24 µM
- TGI [4]: 8.36 µM
- TGI [5]: 8.45 µM
- TGI [45]: > 100 µM
- TGI [6]: 24.5 µM
- TGI [7]: 55.8 µM
- TGI [46]: 31.6 µM
- TGI [8]: 20.7 µM
- TGI [9]: > 93.4 µM
- TGI [10]: > 85.1 µM
- TGI [47]: 3.92 µM
- TGI [11]: 10 µM
- TGI [12]: 10.9 µM
- TGI [13]: 45.3 µM
- TGI [48]: > 43.7 µM
- TGI [14]: 9.04 µM
- TGI [15]: 4.12 µM
- TGI [16]: 6.09 µM
- TGI [17]: 37.7 µM
- TGI [18]: 13.4 µM
- TGI [49]: 32.7 µM
- TGI [19]: > 45.1 µM
- TGI [20]: 8.52 µM
- TGI [21]: 40.6 µM
- TGI [22]: 35 µM
- TGI [50]: 27.2 µM
- TGI [51]: 5.54 µM
- TGI [52]: 10.1 µM
- TGI [23]: 6.01 µM
- TGI [53]: 8.71 µM
- TGI [24]: 63.4 µM
- TGI [25]: 50.1 µM
- TGI [54]: 3.86 µM
- TGI [26]: 53.2 µM
- TGI [55]: 3.38 µM
- TGI [56]: 30.8 µM
- TGI [27]: 33.2 µM
- TGI [28]: 30 µM
- TGI [29]: > 60.3 µM
- TGI [30]: 21.2 µM
- TGI [31]: > 100 µM
- TGI [57]: 27.7 µM
- TGI [32]: 12 µM
- TGI [33]: 8.86 µM
- TGI [34]: 35.8 µM
- TGI [35]: 17.2 µM
- TGI [36]: 5.8 µM
- TGI [58]: 31.6 µM
- TGI [37]: 33.3 µM
- TGI [38]: 20.9 µM

Compound: [O-][N+]1=C2CCC/C(=N/O)C2(O)C2CCCCC21N1CCOCC1 (centres undefined)
- TGI [1]: > 100 µM
- TGI [39]: > 100 µM
- TGI [40]: > 100 µM
- TGI [41]: > 100 µM
- TGI [42]: > 100 µM
- TGI [43]: > 100 µM
- TGI [2]: > 100 µM
- TGI [44]: > 100 µM
- TGI [3]: > 100 µM
- TGI [4]: > 100 µM
- TGI [5]: > 100 µM
- TGI [45]: > 100 µM
- TGI [6]: > 100 µM
- TGI [7]: > 100 µM
- TGI [46]: > 100 µM
- TGI [8]: > 100 µM
- TGI [9]: > 100 µM
- TGI [10]: > 100 µM
- TGI [47]: > 100 µM
- TGI [12]: > 100 µM
- TGI [13]: > 100 µM
- TGI [48]: > 100 µM
- TGI [14]: > 100 µM
- TGI [15]: > 100 µM
- TGI [16]: > 100 µM
- TGI [17]: > 100 µM
- TGI [18]: > 100 µM
- TGI [49]: > 100 µM
- TGI [19]: > 100 µM
- TGI [22]: > 100 µM
- TGI [50]: > 100 µM
- TGI [51]: > 100 µM
- TGI [52]: > 100 µM
- TGI [23]: > 100 µM
- TGI [24]: > 100 µM
- TGI [25]: > 100 µM
- TGI [54]: > 100 µM
- TGI [26]: > 100 µM
- TGI [55]: > 100 µM
- TGI [56]: > 100 µM
- TGI [27]: > 100 µM
- TGI [28]: > 100 µM
- TGI [29]: > 100 µM
- TGI [30]: > 100 µM
- TGI [31]: > 100 µM
- TGI [57]: > 100 µM
- TGI [32]: > 100 µM
- TGI [59]: > 100 µM
- TGI [33]: > 100 µM
- TGI [34]: > 100 µM
- TGI [35]: > 100 µM
- TGI [58]: > 100 µM
- TGI [37]: > 100 µM
- TGI [38]: > 100 µM

Compound: CCn1ncc(N=O)c1N
- TGI [41]: > 100 µM
- TGI [2]: > 100 µM
- TGI [44]: > 100 µM
- TGI [3]: > 100 µM
- TGI [4]: > 100 µM
- TGI [5]: > 100 µM
- TGI [45]: > 100 µM
- TGI [6]: > 100 µM
- TGI [7]: > 100 µM
- TGI [46]: > 100 µM
- TGI [9]: > 100 µM
- GI50 [10]: 22 µM and 58 µM
- TGI [10]: > 100 µM
- TGI [47]: > 100 µM
- TGI [11]: > 100 µM
- TGI [12]: > 100 µM
- TGI [13]: > 100 µM
- TGI [48]: > 100 µM
- TGI [14]: > 100 µM
- TGI [15]: > 100 µM
- TGI [16]: > 100 µM
- TGI [17]: > 100 µM
- TGI [18]: > 100 µM
- TGI [49]: > 100 µM
- TGI [19]: > 100 µM
- TGI [20]: > 100 µM
- TGI [22]: > 100 µM
- TGI [50]: > 100 µM
- TGI [51]: > 100 µM
- TGI [52]: > 100 µM
- TGI [23]: > 100 µM
- TGI [24]: > 100 µM
- TGI [25]: > 100 µM
- TGI [54]: > 100 µM
- TGI [26]: > 100 µM
- TGI [55]: > 100 µM
- TGI [27]: > 100 µM
- TGI [28]: > 100 µM
- TGI [30]: > 100 µM
- TGI [31]: > 100 µM
- TGI [57]: > 100 µM
- TGI [32]: > 100 µM
- TGI [59]: > 100 µM
- TGI [33]: > 100 µM
- TGI [34]: > 100 µM
- TGI [35]: > 100 µM
- TGI [58]: > 100 µM
- TGI [37]: > 100 µM
- TGI [38]: > 100 µM
